The values that follow come from patent US7247727B2, “Azaindole thiazolinones” (Hoffmann-La Roche Inc., priority 2004, dated 2007).

For one series, the target named is CDK1/Cyclin B (Homo sapiens, UniProt P06493). Nature of the series: CDK1/Cyclin B kinase assay (FlashPlate or HTRF). In kind it is biochemical. The settings on record: recombinant human CDK1/Cyclin B, Rb protein substrate; Ki=IC50/(1+[S]/Km). The method, then: To determine inhibition of CDK1 activity, either FlashPlate™ (NEN™-Life Science Products) assay or HTRF assay was performed. Both types of kinase assays were carried out using recombinant human CDK1/Cyclin B complex. GST-cyclinB (GST-cycB) and CDK1 cDNA clones in baculovirus vectors were provided by Dr. W. Harper at the Baylor College of Medicine, Houston, Tex. Proteins were co-expressed in High Five™ insect cells and the complex was purified on glutathione Sepharose resin (Pharmacia, Piscataway, N.J.) as previously described (Harper, J. W. et al. Cell 1993, 75, 805-816). A 6x-Histidine tagged truncated form of retinoblastoma (Rb) protein (amino acid 386-928) was used as the substrate for the CDK1/Cyclin B assay (the expression plasmid was provided by Dr. Veronica Sullivan, Department of Molecular Virology, Roche Research Centre, Welwyn Garden City, United Kingdom). The Rb protein is a natural substrate for phosphorylation by CDK1 (see Herwig and Strauss Eur. J. Biochem. Vol. 246 (1997) pp. 581-601 and the references cited therein). The expression of the 62Kd protein was under the control of an IPTG inducible promoter in an M15 E. coli strain. Cells were lysed by sonication and purification was carried out by binding lysates at pH 8.0 to a Ni-chelated agarose column pretreated with 1 mM imidazole. The resin was then washed several times with incrementally decreasing pH buffers to pH 6.0, and eluted with 500 mM imidazole. Eluted protein was dialyzed against 20 mM HEPES pH 7.5, 30% glycerol, 200 mM NaCl, and 1 mM DTT. Purified Rb fusion protein stocks were quantitated for protein concentration, aliquoted, and stored at −70° C.
For the FlashPlate kinase assay, 96-well FlashPlates were coated with Rb protein at 10 μg/ml, using 100 μl per well. Plates were incubated at 4° C. overnight or at room temperature for 3 hours on a shaker. […] Plates were washed four times with the wash buffer, sealed, and counted on the TopCount scintillation counter (Packard Instrument Co., Downers Grove, Ill.]. The percent inhibition of Rb phosphorylation, which is a measure of the inhibition of CDK activity, was determined according to the following formula:
[formula] where “test compound” refers to the average counts per minute of the test duplicates, “nonspecific” refers to the average counts per minute when no CDK1/Cyclin B, etc., was added, and “total” refers to the average counts per minute when no compound was added. […] The value of the inhibitor constant Ki is calculated by the following: Ki=IC50/(1+[S]/Km), where [S] is the ATP concentration and Km is Michaelis constant.
The Homogeneous Time Resolved Fluorescence (HTRF) kinase assay was carried out in 96-well polypropylene plates (BD Biosciences, Bedford, Mass.). […]
(In general: In TR-FRET formats the signal depends on donor and acceptor labels being close together.)

Another series deals with CDK2/Cyclin E (Homo sapiens, UniProt P24941). Nature of the series: CDK2/Cyclin E kinase assay (procedure as for CDK1/Cyclin B). The settings on record: CDK2/Cyclin E complex, Rb protein substrate; Ki=IC50/(1+[S]/Km). It is filed as biochemical. The protocol:
For the FlashPlate kinase assay, 96-well FlashPlates were coated with Rb protein at 10 μg/ml, using 100 μl per well. Plates were incubated at 4° C. overnight or at room temperature for 3 hours on a shaker. To control for nonspecific phosphorylation, one row of wells was coated with 100 μl/well coating buffer (20 mM HEPES, 0.2 M NaCl). Plates were then washed twice with wash buffer (0.01% Tween 20 in phosphate-buffered saline). Compounds to be tested (“test compounds”) were added to the wells at 5× final concentration. Reactions were initiated by immediate addition of 40 μl reaction mix (25 mM HEPES, 20 mM MgCl2, 0.002% Tween 20, 2 mM DTT, 1 μM ATP, 4 nM 33P-ATP) and a sufficient amount of enzyme to give counts that were at least 10-fold above background. Plates were incubated at room temperature on a shaker for 30 minutes. Plates were washed four times with the wash buffer, sealed, and counted on the TopCount scintillation counter (Packard Instrument Co., Downers Grove, Ill.]. The percent inhibition of Rb phosphorylation, which is a measure of the inhibition of CDK activity, was determined according to the following formula:
[formula] where “test compound” refers to the average counts per minute of the test duplicates, “nonspecific” refers to the average counts per minute when no CDK1/Cyclin B, etc., was added, and “total” refers to the average counts per minute when no compound was added. The IC50 value is the concentration of test compound that reduces by 50% the protein-kinase induced incorporation of the radiolabel under the test conditions described. The value of the inhibitor constant Ki is calculated by the following: Ki=IC50/(1+[S]/Km), where [S] is the ATP concentration and Km is Michaelis constant.
The Homogeneous Time Resolved Fluorescence (HTRF) kinase assay was carried out in 96-well polypropylene plates (BD Biosciences, Bedford, Mass.). Test compounds were first dissolved in DMSO, and then diluted in kinase assay buffer 1 (25 mM HEPES, pH7.0, 8 mM MgCl2, 1.5 mM DTT, and 162 μM ATP) with DMSO concentration at 15%. The CDK1/Cyclin B enzyme was diluted in kinase assay buffer 2 (25 mM HEPES, pH 7.0, 8 mM MgCl2, 0.003% Tween 20, 0.045% BSA, 1.5 mM DTT, and 0.675 μM Rb protein). To initiate the kinase reaction, 20 μL of compound solution was mixed with 40 μL of CDK1/Cyclin B solution in assay plates with final concentration of CDK1/Cyclin B and Rb at 0.1 μg/mL and […], respectively, and incubated at 37° C. for 30 min. […] At the completion of the incubation, 35 μL of reaction mixture was transferred to fresh 384-well black polystyrene plates (Corning Incorporated, Corning, N.Y.) and read on a fluorescent plate reader at excitation wavelength of 340 nm and emission wavelength of 665/615 nm. […]

Usually melting point stands for the temperature, or range, at which the solid turns liquid. For orientation: Ki means the equilibrium dissociation constant of an inhibitor or competing ligand from its target.

Chain of CDK1/Cyclin B (P06493 whole entry, the tested form may be a part): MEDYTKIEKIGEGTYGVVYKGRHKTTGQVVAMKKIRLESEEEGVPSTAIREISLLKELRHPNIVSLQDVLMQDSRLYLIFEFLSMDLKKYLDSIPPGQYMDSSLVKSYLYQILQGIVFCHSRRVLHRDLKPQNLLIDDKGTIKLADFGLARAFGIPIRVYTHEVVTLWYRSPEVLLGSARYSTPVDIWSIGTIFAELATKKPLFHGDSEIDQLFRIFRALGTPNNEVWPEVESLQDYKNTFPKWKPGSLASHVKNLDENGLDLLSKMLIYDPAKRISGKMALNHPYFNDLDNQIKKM
Chain of CDK1/Cyclin B (P14635 whole entry partner, the tested form may be a part): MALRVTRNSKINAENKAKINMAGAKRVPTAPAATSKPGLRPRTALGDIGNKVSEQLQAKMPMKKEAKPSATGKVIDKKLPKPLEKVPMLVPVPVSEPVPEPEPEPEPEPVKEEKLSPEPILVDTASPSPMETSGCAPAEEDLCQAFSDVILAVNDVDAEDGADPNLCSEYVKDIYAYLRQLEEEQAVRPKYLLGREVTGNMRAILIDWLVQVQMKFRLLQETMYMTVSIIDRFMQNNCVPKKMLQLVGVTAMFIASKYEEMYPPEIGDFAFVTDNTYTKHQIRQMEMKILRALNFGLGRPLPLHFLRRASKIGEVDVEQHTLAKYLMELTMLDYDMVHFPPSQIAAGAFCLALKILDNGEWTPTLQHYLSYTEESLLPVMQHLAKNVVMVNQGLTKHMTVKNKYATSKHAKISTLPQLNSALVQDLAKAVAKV

With `O=C1N=C(NCc2cccs2)S/C1=C\c1c[nH]c2ncccc12` [Example 1, 5-[1-(1H-Pyrrolo[2,3-b]pyridin-3-yl)-meth-(Z)-ylidine]-2-[(thiophen-2-ylmethyl)-amino]-thiazol-4-one], the melting point lay within 243 to 246 °C.
Still for that read-out and setting: as for `O=C1N=C(N[C@@H](CO)c2ccccc2)S/C1=C\c1c[nH]c2ncccc12` [Example 3, 2-(2-Hydroxy-1-(R)-phenyl-ethylamino)-5-[1-(1H-pyrrolo[2,3-b]pyridin-3-yl)-meth-(Z)-ylidine]-thiazol-4-one], the figure is 317 to 319 °C; as for `O=C1N=C(NCc2ccc(F)c(Cl)c2)S/C1=C\c1c[nH]c2ncccc12` [Example 4, 2-(3-Chloro-4-fluorobenzylamino)-5-[1-(1H-pyrrolo[2,3-b]pyridin-3-yl)-meth-(Z)-ylidine]-thiazol-4-one], 318 to 320 °C.
As for `O=C1N=C(NC2C[C@@H]2c2ccccc2)S/C1=C\c1c[nH]c2ncccc12` (stereo partly drawn) [Example 5, 2-((1R,2S)-2-Phenyl-cyclopropylamino)-5-[1-(1H-pyrrolo[2,3-b]pyridin-3-yl)-meth-(Z)-ylidine]-thiazol-4-one], the melting point fell in the range of 308 to 310 °C. For the same molecule, on CDK1/Cyclin B, the Ki came out at 10 nM. This molecule also yielded an inhibition constant (Ki) on CDK2/Cyclin E of 17 nM.
Regarding `CC(C)[C@H](CO)NC1=NC(=O)/C(=C/c2c[nH]c3ncccc23)S1` [Example 6, 2-(1-(R)-Hydroxymethyl-2-methylpropylamino)-5-[1-(1H-pyrrolo[2,3-b]pyridin-3-yl)-meth-(Z)-ylidine]-thiazol-4-one], the melting point fell in the range of 269 to 271 °C.
For the molecule `CC(=O)OC[C@H](NC1=NC(=O)/C(=C/c2c[nH]c3ncccc23)S1)c1ccccc1` [Example 7, Acetic Acid 2-[4-oxo-5-(1H-pyrrolo[2,3,b]pyridine-3-ylmethylene)-4,5-dihydro-thiazol-2-ylamino]-2-(R)-phenyl-ethyl ester], the melting point was in the range of 243.7 to 246.8 °C.
On to `Cc1ccsc1CNC1=NC(=O)/C(=C/c2c[nH]c3ncccc23)S1` [Example 10, 2-[(3-Methyl-thiophen-2-ylmethyl)-amino)-5-[1-(1H-pyrrolo[2,3-b]pyridin-3-yl)-meth-(Z)-ylidine]-thiazol-4-one], for which the inhibitory constant (Ki) at CDK1/Cyclin B was 48 nM; at CDK2/Cyclin E, 18 nM.
On the same counts, the results for `NC1=NC(=O)/C(=C/c2c[nH]c3ncccc23)S1` [Example 15, 2-Amino-5-[1-(1H-pyrrolo[2,3-b]pyridin-3-yl)-meth-(Z)-ylidene]-thiazol-4-one] are 830 nM and 252 nM.
As to `COc1ccccc1NC1=NC(=O)/C(=C/c2c[nH]c3ncccc23)S1` [Example 18, 2-(2-Methoxy-phenylamino)-5-[1-(1H-pyrrolo[2,3-b]pyridin-3-yl)-meth-(Z)-ylidene]-thiazol-4-one], the Ki was determined as 1150 nM at CDK1/Cyclin B and 187 nM at CDK2/Cyclin E.
